Test results from ChEMBL document CHEMBL1124865, “Synthesis and biological evaluation of a series of parenteral 3'-quaternary ammonium cephalosporins” (J Med Chem, 1990).
≈ marks a conversion by molar mass, not a printed value.

How the values were obtained:
Assay type in all cases: functional
Klebsiella pneumoniae [1] = experiment: microbe, parasite or virus in culture
Description: Antibacterial activity against Klebsiella pneumoniae 1082E

Serratia marcescens = experiment: Antibacterial activity against Serratia marcescens SE3
Escherichia coli [2] = experiment: In vivo efficacy against Escherichia coli infections in mice
Streptococcus pneumoniae = experiment: Antibacterial activity against Streptococcus pneumoniae
Streptococcus pyogenes = experiment: Antibacterial activity against Streptococcus pyogenes
Escherichia coli [3] = experiment: In vivo efficacy against Escherichia coli infected mice treated at 1 hr and 5 hr post infection
Staphylococcus aureus [4] = experiment: In vivo efficacy against Staphylococcus aureus infected mice treated at 1 hr and 5 hr post infection
Enterobacter cloacae [5] = experiment: Antibacterial activity against Enterobacter cloacae EB5
Escherichia coli [6] = experiment: Antibacterial activity against Escherichia coli EC14
Staphylococcus aureus [7] = experiment: Antibacterial activity against penicillin G resistance Staphylococcus aureus
Staphylococcus aureus [8] = experiment: Antibacterial activity against penicillin G susceptible Staphylococcus aureus
Staphylococcus aureus [9] = experiment: In vivo efficacy against Staphylococcus aureus infections in mice
Pseudomonas aeruginosa [10] = experiment: Antibacterial activity against Pseudomonas aeruginosa PS18
Pseudomonas aeruginosa [11] = experiment: In vivo efficacy against Pseudomonas aeruginosa infected mice treated at 1 hr and 5 hr post infection
Escherichia coli [12] = experiment: Antibacterial activity against Escherichia coli TEM
Enterobacter cloacae [13] = experiment: Antibacterial activity against Enterobacter cloacae 265A
Pseudomonas aeruginosa [14] = experiment: Antibacterial activity against Pseudomonas aeruginosa X528
Klebsiella pneumoniae [15] = experiment: Antibacterial activity against Klebsiella pneumoniae X26
Pseudomonas aeruginosa [16] = experiment: In vivo efficacy against Pseudomonas aeruginosa infections in mice
Enterococcus faecium = experiment: Antibacterial activity against Enterococcus faecium

Compound | MIC (Klebsiella pneumoniae [1]) [µg/mL] | MIC (Serratia marcescens) [µg/mL] | MIC (Escherichia coli [2]) [µg/mL] | MIC (Streptococcus pneumoniae) [µg/mL] | MIC (Streptococcus pyogenes) [µg/mL] | ED50 (Escherichia coli [3]) [mg/kg] | ED50 (Staphylococcus aureus [4]) [mg/kg] | MIC (Enterobacter cloacae [5]) [µg/mL] | MIC (Escherichia coli [6]) [µg/mL] | MIC (Staphylococcus aureus [7]) [µg/mL] | MIC (Staphylococcus aureus [8]) [µg/mL] | MIC (Staphylococcus aureus [9]) [µg/mL] | MIC (Pseudomonas aeruginosa [10]) [µg/mL] | ED50 (Pseudomonas aeruginosa [11]) [mg/kg] | MIC (Escherichia coli [12]) [µg/mL] | MIC (Enterobacter cloacae [13]) [µg/mL] | MIC (Pseudomonas aeruginosa [14]) [µg/mL] | MIC (Klebsiella pneumoniae [15]) [µg/mL] | MIC (Pseudomonas aeruginosa [16]) [µg/mL] | MIC (Enterococcus faecium) [µg/mL]
CO/N=C(\C(=O)N[C@@H]1C(=O)N2C(C(=O)[O-])=C(C[n+]3cccc(CC(=O)O)c3)CS[C@H]12)c1csc(N)n1 (stereo in doubt; 17) | 32 (≈ 60.1 µM) | 0.06 (≈ 0.113 µM) | 0.03 (≈ 0.0563 µM) | 0.03 (≈ 0.0563 µM) | 0.03 (≈ 0.0563 µM) | <0.16 | 6.2 | 0.25 (≈ 0.469 µM) | <0.008 | 16 (≈ 30 µM) | 8 (≈ 15 µM) | 8 (≈ 15 µM) | – | – | – | – | – | – | – | –
CO/N=C(\C(=O)N[C@@H]1C(=O)N2C(C(=O)[O-])=C(C[n+]3ccc(CC(=O)NO)cc3)CS[C@H]12)c1csc(N)n1 (stereo in doubt; 12) | 32 (≈ 58.4 µM) | – | – | – | – | <0.16 | 5.3 | 4 (≈ 7.3 µM) | 0.06 (≈ 0.11 µM) | 8 (≈ 14.6 µM) | – | 4 (≈ 7.3 µM) | 8 (≈ 14.6 µM) | 8.6 | 0.125 (≈ 0.228 µM) | >128 | 4 (≈ 7.3 µM) | 0.06 (≈ 0.11 µM) | – | –
CO/N=C(\C(=O)N[C@@H]1C(=O)N2C(C(=O)[O-])=C(C[n+]3ccc(CC(=O)NO)cc3)CS[C@H]12)c1csc(N)n1 (stereo in doubt; 13) | – | – | – | – | – | 0.05 | >10 | – | – | – | – | 8 (≈ 14.6 µM) | – | 31 | – | 128 (≈ 234 µM) | 16 (≈ 29.2 µM) | – | 64 (≈ 117 µM) | –
CO/N=C(\C(=O)N[C@@H]1C(=O)N2C(C(=O)[O-])=C(C[n+]3ccc(CC(=O)NO)cc3)CS[C@H]12)c1csc(N)n1 (stereo in doubt; 21) | – | 0.06 (≈ 0.11 µM) | – | – | 0.015 (≈ 0.0274 µM) | 0.07 | 3.3 | 0.125 (≈ 0.228 µM) | – | – | – | 2 (≈ 3.65 µM) | – | – | – | 16 (≈ 29.2 µM) | 1 (≈ 1.83 µM) | – | – | –
CO/N=C(\C(=O)N[C@@H]1C(=O)N2C(C(=O)[O-])=C(C[n+]3cccc(CC(=O)O)c3)CS[C@H]12)c1csc(N)n1 (stereo in doubt; 24) | 8 (≈ 15 µM) | 0.5 (≈ 0.939 µM) | – | – | – | 0.09 | – | – | 0.125 (≈ 0.235 µM) | 8 (≈ 15 µM) | – | – | – | 17.4 | – | – | 4 (≈ 7.51 µM) | 0.06 (≈ 0.113 µM) | 16 (≈ 30 µM) | –
CO/N=C(\C(=O)N[C@@H]1C(=O)N2C(C(=O)[O-])=C(C[n+]3ccc(CC(=O)NO)cc3)CS[C@H]12)c1csc(N)n1 (stereo in doubt; 7) | – | – | – | 0.015 (≈ 0.0274 µM) | – | 0.04 | 1.5 | – | – | – | – | – | – | 19.6 | – | – | – | – | – | –
CO/N=C(\C(=O)N[C@@H]1C(=O)N2C(C(=O)[O-])=C(C[n+]3ccc(CC(=O)NO)cc3)CS[C@H]12)c1csc(N)n1 (stereo in doubt; 8) | 16 (≈ 29.2 µM) | 0.5 (≈ 0.913 µM) | – | – | – | 0.82 | 2.5 | 0.5 (≈ 0.913 µM) | – | – | 4 (≈ 7.3 µM) | – | – | >40 | 0.06 (≈ 0.11 µM) | – | 32 (≈ 58.4 µM) | – | – | –
CO/N=C(\C(=O)N[C@@H]1C(=O)N2C(C(=O)[O-])=C(C[n+]3ccc(CC(=O)NO)cc3)CS[C@H]12)c1csc(N)n1 (stereo in doubt; 20) | 8 (≈ 14.6 µM) | 0.25 (≈ 0.457 µM) | 0.06 (≈ 0.11 µM) | 0.06 (≈ 0.11 µM) | 0.06 (≈ 0.11 µM) | <0.03 | 1.4 | – | – | 16 (≈ 29.2 µM) | 8 (≈ 14.6 µM) | – | 16 (≈ 29.2 µM) | 20 | – | 64 (≈ 117 µM) | – | – | 8 (≈ 14.6 µM) | >128
